Counter-ions that a name gives are not always drawn. Like-named read-outs stand apart in the source and are kept apart here.
Legend:
[1] = molecular target: recombinant HparOBP14 (Holotrichia parallela, UniProt A0A0G2YD86); assay: biochemical; assay type: binding; details: for binding ability with HparOBP14: 1-NPN displacement, Figure 5
Description: To determine the affinity of HparOBP14 to odorant volatiles, the fluorescent displacement binding assay was carried out. A total of 27 compounds was selected, including 7 compounds from host plant (elm) volatiles, 11 compounds from organic fertilizer volatiles, and 9 compounds common in both of them. The odorant compounds (purity ≥95%) were purchased from Sigma-Aldrich. The fluorescent probe N-phenyl-1-naphthylamine (1-NPN) was dissolved in methanol (chromatographic grade) to a final concentration of 1 mM and used as the stock solution. The stock solution of the purified protein was diluted with Tris-HCl (50 mmol/L, pH 7.4) to a final concentration of 2 μM and added into a colorimetric plate cuvette. The 1-NPN stock solution was then successively added to the protein solution to the final concentrations ranging from 2 μM to 20 μM. The fluorescence changes were recorded to get K1-NPN, the dissociation constant of the complex HparOBP14/1-NPN.
The binding ability of HparOBP14 to the odorant compounds was determined by titrating the mixture of the protein and the 1-NPN (final concentration 2 μM of both) with each odorant compound at final concentrations ranging from 2 μM to 40 μM. The competitive dissociation constant was calculated from the corresponding IC50 values using the following equation: Ki = [IC50]/(1+ [1-NPN]/K1-NPN), where [1-NPN] is the free concentration of 1-NPN; K1-NPN is the dissociation constant of the complex HparOBP14/1-NPN.
The fluorescence changes during the binding of either 1-NPN or odorant compounds to the HparOBP14 protein were measured and recorded with the excitation wavelength of 337 nm and within a wavelength range of 350~550 nm by a 970CRT fluorescence spectrophotometer (Yidian Analytical Instrument Company, Shanghai, China).

[2] = system: antennae of H. parallela female adults; assay: Electroantennogram (EAG) recording after dsRNA injection; assay type: in vivo, Holotrichia parallela; details: 20 μL of 1 μg/μL in paraffin oil; for change of EAG responsive amplitude in dsHparOBP14-injected insects compared to uninjected control: 48 h after dsHparOBP14 injection; for EAG response: female adults
Description: (§1) The dsRNAs of HparOBP14 and GFP (GenBank number: ACY56286) (for primers, see Table S1) were synthesized using a T7 Ribo MAX™ Express RNAi System (Promega, Madison, WI, USA) according to the manufacturer’s instructions. The GFP-dsRNA was used as the negative control. Nine-to-eleven-day-old female adult beetles were injected with 2 μg dsRNA into the adult head with a 5 μL injection needle (7000 series syringes, Hamilton, USA), then kept under the same condition as 2.1 described above. The antennae were dissected at 24 h, 48 h, 72 h, and 96 h after injection, and the samples were stored at −80 °C for further RT-qPCR analyses.
The EAG recording was conducted on the adult antennae with the EAG micromanipulator MP-15 and analyzed with EAG-Pro (Syntech, Kirchzarten, Germany). Briefly, two ends of the antennae were set on electrode holders with a conductive adhesive (Spectra 360 electrode gel). An ashless filter paper (Hangzhou Special Paper Co., Ltd., Hangzhou, China) was cut into strips (3 cm × 0.5 cm). A 20 μL compound solution (concentration 1 μg/μL in paraffin oil) was applied onto the paper strip which was then placed in a Pasteur tube (17 cm × […]) and applied to the antennae by purified air at a flow rate of 1 L/min. The paraffin oil (20 μL) was used as a control. The stimulus recording time was 0.5 s and the interval between two stimulations was more than 1 min.

[3] = system: female Holotrichia parallela adults; assay: Y-tube olfactometer behavioral bioassay; assay type: in vivo; details: for change of attraction after injection of dsHparOBP14: dsHparOBP14-injected females; for behavioral response of uninjected female beetles: uninjected females, vs paraffin oil
Description: as §1
The Y-tube olfactometer mainly consisted of a Y-shaped glass tube (main arm, 30 cm; sidearm, 20 cm; inner diameter, 2.5 cm; side arm angle, 60 degrees), an air sampler, a drying tower, a gas scrubber, and a flow meter. Two gas-washing cylinders were successively connected with the flow meter, drying tower, air pump, and Y-shaped glass tube through rubber pipes. The testing compound (concentration 1 μg/μL in paraffin oil) and paraffin oil (as control) were taken and dropped respectively into a rubber septum (Pherobio Technology Co., Ltd., Beijing, China) and placed respectively into the side arms of the Y-tube. The flow rate of the atmospheric air sampler was adjusted to 500 mL/min.
A female adult beetle was introduced into the main arm at the downwind end of the Y-olfactometer. Each beetle was given 5 min to respond to the treatment, and the first choice that the beetle made for each of the lateral arms was recorded. The response was regarded as valid only if the beetle crawled more than 3 cm into a lateral arm and stayed for more than 1 min.
For each compound, more than 90 beetles were tested individually until 90 responsive beetles were obtained. Each individual beetle was tested only once, and the Y-olfactometer was replaced after every 10 beetles were tested to eliminate the odor effect. The number of individual beetles that selected the compound-treated arm of the Y-olfactometer was statistically compared with the number of beetles that selected the solvent-treated arm using a Chi-square goodness of fit test.

[4] = HparOBP14 and 1-NPN 2 µM each, titrated with compound 2–40 μM
[5] = HparOBP14 and 1-NPN 2 µM each, titrated with compound 2–40 μM, read-out: IC50
[6] = calculated from IC50: Ki = [IC50]/(1+[1-NPN]/K1-NPN), read-out: Ki

Sequence of recombinant HparOBP14 (A0A0G2YD86 entry or part of it): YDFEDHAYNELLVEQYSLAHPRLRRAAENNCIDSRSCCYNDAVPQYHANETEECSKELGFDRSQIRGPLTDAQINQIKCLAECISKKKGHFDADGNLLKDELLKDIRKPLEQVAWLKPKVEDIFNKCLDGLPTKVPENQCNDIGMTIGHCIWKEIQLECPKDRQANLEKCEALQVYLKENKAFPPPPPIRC

Row | SMILES | Int (%): relative fluorescence intensity of 1-NPN/HparOBP14 complex after the addition of testing compound [1, 4] [%] | IC50 [1, 5] [µM] | Ki [1, 6] [µM] | Kd [1] [µM] | IC50 [1] [µM] | Ki [1] [µM] | binding ability with HparOBP14 [1] | change of EAG responsive amplitude in dsHparOBP14-injected insects compared to uninjected control [2] | EAG response [2] | change of attraction after injection of dsHparOBP14 [3] | behavioral response of uninjected female beetles [3]
1 | CCCCCCCCCCCC=O [dodecyl aldehyde] | 92.42 | > 40 | > 34.1 | – | – | – | – | – | – | – | –
2 | C=C1C2CCC(C2)C1(C)C (stereo not drawn) [camphene] | 83.88 | > 40 | > 34.1 | – | – | – | – | – | – | – | –
3 | CCCCCCCC=O [octanal] | – | > 40 | > 34.1 | – | – | – | – | – | – | – | –
4 | c1ccc(Nc2cccc3ccccc23)cc1 [1-NPN, N-phenyl-1-naphthylamine, reference compound] | – | – | – | 5.8 | – | – | – | – | – | – | –
5 | CC1=CCC2C(C1)C2(C)C (stereo not drawn) [3-carene] | 68.52 | > 40 | > 34.1 | – | – | – | – | – | – | – | –
6 | CCCCCCCO [1-heptanol] | 83.41 | – | > 34.1 | – | > 40 | – | – | – | – | – | –
7 | Cc1ccc(O)cc1 [p-cresol] | 91.23 | – | – | – | > 40 | > 34.1 | – | – | – | – | –
8 | C=CC(C)(O)CCC=C(C)C (stereo not drawn) [linalool] | 89.20 | – | – | – | > 40 | > 34.1 | weaker, or no, binding ability | – | – | – | –
9 | CC(=O)CCC=C(C)C [6-methyl-5-hepten-2-one] | 61.66 | – | – | – | 32 | 28.2 | – | do not change significantly | clear responses | significantly increased | attracted
10 | c1ccc2[nH]ccc2c1 [indole] | 82.23 | – | – | – | > 40 | > 34.1 | – | – | – | – | –
11 | CCCCCCCCC=O [1-nonanal] | 69.22 | > 40 | > 34.1 | – | – | – | – | – | – | – | –
12 | CCCC(=O)O [butyric acid] | 99.07 | – | – | – | > 40 | > 34.1 | – | – | – | – | –
13 | CC/C=C\CCO [(Z)-3-hexen-1-ol] | 96.53 | – | – | – | > 40 | > 34.1 | – | – | – | – | –
14 | CO [methanol] | 65.66 | 32.1 | 27.4 | – | – | – | – | decreased significantly | – | markedly reduced | attracted
15 | Cc1ccc(C(C)C)cc1 [p-cymene] | 62.70 | – | – | – | 29.9 | 25.5 | – | decreased significantly | – | no obvious change | attracted
16 | CCCCCCO [1-hexanol] | 72.19 | – | > 34.1 | – | > 40 | – | – | – | – | – | –
17 | CC/C=C\CCOC=O [cis-3-hexenyl formate] | 81.25 | > 40 | > 34.1 | – | – | – | weaker, or no, binding ability | – | – | – | –
18 | CC(C)=CCC/C(C)=C/CO [geraniol] | 72.07 | – | – | – | 40 | 34.1 | – | decreased significantly | – | markedly reduced | attracted
19 | C=C1CC/C=C(\C)CC[C@@H]2[C@@H]1CC2(C)C [β-caryophyllen] | – | > 40 | > 34.1 | – | – | – | – | – | – | – | –
20 | Cc1c[nH]c2ccccc12 [3-methylindole] | 56.22 | 24.6 | 21 | – | – | – | – | do not change significantly | clear responses | no obvious change | attracted
21 | CCCC(O)CC (stereo not drawn) [3-hexanol] | 84.27 | > 40 | > 34.1 | – | – | – | – | – | – | – | –
22 | CCCCC(CC)CO (stereo not drawn) [2-ethylhexanol] | 85.80 | > 40 | > 34.1 | – | – | – | weaker, or no, binding ability | – | – | – | –
23 | C=CCc1ccc(O)c(OC)c1 [eugenol] | 86.03 | – | – | – | > 40 | > 34.1 | – | – | – | – | –
24 | CC1=CC[C@H](C(C)C)C=C1 (racemic) [α-phellandrene] | 83.00 | – | – | – | > 40 | > 34.1 | weaker, or no, binding ability | – | – | – | –
25 | CC/C=C\CCOC(C)=O [cis-3-hexenyl acetate] | 81.43 | > 40 | > 34.1 | – | – | – | weaker, or no, binding ability | – | – | – | –
26 | C=O [formaldehyde] | 68.91 | 34.6 | 29.5 | – | – | – | – | decreased significantly | – | no obvious change | attracted
27 | CC1=CCC2CC1C2(C)C (stereo not drawn) [α-pinene] | 67.49 | – | – | – | 38.5 | 32.8 | – | decreased significantly | – | significantly increased | attracted
28 | CCCCCCCCCC=O [decanal] | 77.88 | > 40 | > 34.1 | – | – | – | – | – | – | – | –
